Test results reported in PubChem BioAssay (NCI).
Values joined by “and” are separate entries in the source; they are usually repeats but may differ in a detail not shown here. Identical values can stand only once.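 Step 1: Grow cells in 96-well plates. Step 2: Expose to compound for 48 hours at 5 concentrations. Step 3: Interpolate endpoints linearly; if unreached, use highest concentration. GI50 is the concentration that inhibits growth by half. TGI: concentration producing complete growth inhibition.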

The compounds below were run on 786-0 renal (assay: DTP human tumour cell line panel, 48 h).
O=C1CC[C@H]2CNC(=O)C[C@H]2C1 gave a TGI of over 100 µM.
Work on O=[N+]([O-])c1ccc(NSc2ccccc2)cc1 yielded a TGI of 30.8 µM.
Cc1cccc2c3ccc4c(c3n(C)c12)C(=O)C=CC4=O showed a TGI of over 100 µM.
Cc1c(Cl)cccc1Nc1ncccc1C(=O)O showed a GI50 of 70.4 µM and a TGI of over 100 µM.
COc1cc2c(c(O)c1C)C(=O)C(Cl)=CC2=O showed a TGI of 28.2 µM.
With CN=C1NC(=O)/C(=C/c2ccc3ncccc3c2)S1 the GI50 was 10.7 µM and the TGI was over 25 µM.
CN(C)CCNC(=O)c1cccc2nc3c(Cl)cccc3nc12 showed a TGI of over 49.1 µM.
C[C@]12CCC(=O)C=C1CC[C@@H]1C2CC[C@]2(C)NC(=O)C(C#N)CC12 (some centres undefined) showed a TGI of over 100 µM.
C/C(=N\NC(N)=S)c1ccc(C)cc1C showed a TGI of over 100 µM.
OCc1c(-c2cccc3ccccc23)sc(-c2cccc3ccccc23)c1CO showed a TGI of 27.4 µM.
CN(C)c1ccc2c(c1)oc(=O)c1ccccc12 was tested, and the TGI was 26.5 µM.
With O=C1c2ccccc2-c2c1c1cc3c(cc1c(=O)n2CCCCl)OCO3 the GI50 was 18.4 µM and the TGI was 45.7 µM.
C#CC(C)(C)Oc1cc(O)c2c(=O)c3ccccc3n(C)c2c1 was tested, and the TGI was over 100 µM.
In the case of COc1ccc(CNC(=O)COc2ccc(/C=N/Nc3nc4ccccc4s3)cc2)cc1, the GI50 is reported as 2.37 µM and the TGI is reported as 5.9 µM.
O=C(O)CCCc1ccc(N(CCCl)CCCl)cc1 was tested, and the GI50 was 7.67 µM and 35.7 µM and the TGI was 28.4 µM and 181 µM and 133 µM.
Work on CC1CCC[P+](Cc2ccccc2)(c2ccccc2)CC1 (centres undefined) yielded a TGI of over 100 µM.

What follows are compounds tested on HOP-62 NSCLC (assay: DTP human tumour cell line panel, 48 h).
Compound O=C1CC[C@H]2CNC(=O)C[C@H]2C1 has a TGI of over 100 µM.
O=[N+]([O-])c1ccc(NSc2ccccc2)cc1 was tested, and the TGI was over 100 µM.
Compound Cc1cccc2c3ccc4c(c3n(C)c12)C(=O)C=CC4=O has a TGI of over 100 µM.
Cc1c(Cl)cccc1Nc1ncccc1C(=O)O showed a GI50 of over 100 µM and a TGI of over 100 µM.
Work on COc1cc2c(c(O)c1C)C(=O)C(Cl)=CC2=O yielded a TGI of over 69.2 µM.
With CN=C1NC(=O)/C(=C/c2ccc3ncccc3c2)S1 the GI50 was 10.3 µM and the TGI was over 25 µM.
In the case of CN(C)CCNC(=O)c1cccc2nc3c(Cl)cccc3nc12, the TGI is reported as 26.3 µM.
For C[C@]12CCC(=O)C=C1CC[C@@H]1C2CC[C@]2(C)NC(=O)C(C#N)CC12 (some centres undefined), the TGI was over 100 µM.
Work on C/C(=N\NC(N)=S)c1ccc(C)cc1C yielded a TGI of over 100 µM.
Compound OCc1c(-c2cccc3ccccc23)sc(-c2cccc3ccccc23)c1CO has a TGI of 26.3 µM.
CN(C)c1ccc2c(c1)oc(=O)c1ccccc12 gave a TGI of 65.6 µM.
With O=C1c2ccccc2-c2c1c1cc3c(cc1c(=O)n2CCCCl)OCO3 the GI50 was 12.3 µM and the TGI was 28.6 µM.
For C#CC(C)(C)Oc1cc(O)c2c(=O)c3ccccc3n(C)c2c1, the TGI was over 100 µM.
COc1ccc(CNC(=O)COc2ccc(/C=N/Nc3nc4ccccc4s3)cc2)cc1 gave a GI50 of 2.22 µM and a TGI of 11.6 µM.
CC1CCC[P+](Cc2ccccc2)(c2ccccc2)CC1 (centres undefined) showed a TGI of over 100 µM.

What follows are compounds tested on IGROV1 ovarian (assay: DTP human tumour cell line panel, 48 h).
Work on O=C1CC[C@H]2CNC(=O)C[C@H]2C1 yielded a TGI of over 100 µM.
O=[N+]([O-])c1ccc(NSc2ccccc2)cc1 showed a TGI of 27.7 µM.
Compound Cc1cccc2c3ccc4c(c3n(C)c12)C(=O)C=CC4=O has a TGI of over 100 µM.
Cc1c(Cl)cccc1Nc1ncccc1C(=O)O showed a GI50 of over 100 µM and a TGI of over 100 µM.
Compound COc1cc2c(c(O)c1C)C(=O)C(Cl)=CC2=O has a TGI of 40.2 µM.
CN=C1NC(=O)/C(=C/c2ccc3ncccc3c2)S1 was tested, and the GI50 was 8.53 µM and the TGI was over 25 µM.
CN(C)CCNC(=O)c1cccc2nc3c(Cl)cccc3nc12 was tested, and the TGI was over 86.4 µM.
C[C@]12CCC(=O)C=C1CC[C@@H]1C2CC[C@]2(C)NC(=O)C(C#N)CC12 (some centres undefined) gave a TGI of over 100 µM.
Compound C/C(=N\NC(N)=S)c1ccc(C)cc1C has a TGI of over 100 µM.
OCc1c(-c2cccc3ccccc23)sc(-c2cccc3ccccc23)c1CO showed a TGI of 28 µM.
CN(C)c1ccc2c(c1)oc(=O)c1ccccc12 showed a TGI of 36.7 µM.
C#CC(C)(C)Oc1cc(O)c2c(=O)c3ccccc3n(C)c2c1 gave a TGI of over 100 µM.
In the case of COc1ccc(CNC(=O)COc2ccc(/C=N/Nc3nc4ccccc4s3)cc2)cc1, the GI50 is reported as 1.69 µM and the TGI is reported as 6.73 µM.
O=C(O)CCCc1ccc(N(CCCl)CCCl)cc1 was tested, and the GI50 was 30.5 µM and 158 µM and the TGI was 65.3 µM and 352 µM and 321 µM.
For CC1CCC[P+](Cc2ccccc2)(c2ccccc2)CC1 (centres undefined), the TGI was over 100 µM.

Each compound was assayed on K-562 leukemia (assay: DTP human tumour cell line panel, 48 h).
O=C1CC[C@H]2CNC(=O)C[C@H]2C1 showed a TGI of over 100 µM.
Compound O=[N+]([O-])c1ccc(NSc2ccccc2)cc1 has a TGI of over 100 µM.
Cc1cccc2c3ccc4c(c3n(C)c12)C(=O)C=CC4=O showed a TGI of over 100 µM.
With Cc1c(Cl)cccc1Nc1ncccc1C(=O)O the GI50 was 62.7 µM and the TGI was over 100 µM.
For COc1cc2c(c(O)c1C)C(=O)C(Cl)=CC2=O, the TGI was 8.64 µM.
Work on CN=C1NC(=O)/C(=C/c2ccc3ncccc3c2)S1 yielded a GI50 of 13.7 µM and a TGI of over 25 µM.
CN(C)CCNC(=O)c1cccc2nc3c(Cl)cccc3nc12 gave a TGI of 8.74 µM.
Work on C[C@]12CCC(=O)C=C1CC[C@@H]1C2CC[C@]2(C)NC(=O)C(C#N)CC12 (some centres undefined) yielded a TGI of over 100 µM.
In the case of C/C(=N\NC(N)=S)c1ccc(C)cc1C, the TGI is reported as over 100 µM.
OCc1c(-c2cccc3ccccc23)sc(-c2cccc3ccccc23)c1CO showed a TGI of 31.3 µM.
CN(C)c1ccc2c(c1)oc(=O)c1ccccc12 gave a TGI of 26.9 µM.
For O=C1c2ccccc2-c2c1c1cc3c(cc1c(=O)n2CCCCl)OCO3, the GI50 was 99.8 µM and the TGI was over 100 µM.
For C#CC(C)(C)Oc1cc(O)c2c(=O)c3ccccc3n(C)c2c1, the TGI was over 100 µM.
In the case of O=C(O)CCCc1ccc(N(CCCl)CCCl)cc1, the GI50 is reported as 21.7 µM and 152 µM and the TGI is reported as 88.5 µM and 462 µM and 625 µM.
Compound CC1CCC[P+](Cc2ccccc2)(c2ccccc2)CC1 (centres undefined) has a TGI of over 100 µM.

Each compound was assayed on KM12 colon (assay: DTP human tumour cell line panel, 48 h).
For O=C1CC[C@H]2CNC(=O)C[C@H]2C1, the TGI was over 100 µM.
Compound O=[N+]([O-])c1ccc(NSc2ccccc2)cc1 has a TGI of over 100 µM.
Work on Cc1cccc2c3ccc4c(c3n(C)c12)C(=O)C=CC4=O yielded a TGI of over 100 µM.
With Cc1c(Cl)cccc1Nc1ncccc1C(=O)O the GI50 was over 100 µM and the TGI was over 100 µM.
Work on COc1cc2c(c(O)c1C)C(=O)C(Cl)=CC2=O yielded a TGI of 42.1 µM.
CN=C1NC(=O)/C(=C/c2ccc3ncccc3c2)S1 showed a GI50 of 19.9 µM and a TGI of over 25 µM.
In the case of CN(C)CCNC(=O)c1cccc2nc3c(Cl)cccc3nc12, the TGI is reported as 30.4 µM.
For C/C(=N\NC(N)=S)c1ccc(C)cc1C, the TGI was over 100 µM.
With OCc1c(-c2cccc3ccccc23)sc(-c2cccc3ccccc23)c1CO the TGI was 26.4 µM.
With O=C1c2ccccc2-c2c1c1cc3c(cc1c(=O)n2CCCCl)OCO3 the GI50 was 24.1 µM and the TGI was over 100 µM.
Work on COc1ccc(CNC(=O)COc2ccc(/C=N/Nc3nc4ccccc4s3)cc2)cc1 yielded a GI50 of 2.51 µM and a TGI of over 100 µM.
With O=C(O)CCCc1ccc(N(CCCl)CCCl)cc1 the TGI was 57.8 µM and 351 µM and 485 µM.

The compounds below were run on M14 melanoma (assay: DTP human tumour cell line panel, 48 h).
O=C1CC[C@H]2CNC(=O)C[C@H]2C1 showed a TGI of over 100 µM.
In the case of O=[N+]([O-])c1ccc(NSc2ccccc2)cc1, the TGI is reported as 64.5 µM.
In the case of Cc1cccc2c3ccc4c(c3n(C)c12)C(=O)C=CC4=O, the TGI is reported as over 100 µM.
Compound Cc1c(Cl)cccc1Nc1ncccc1C(=O)O has a GI50 of over 100 µM and a TGI of over 100 µM.
